The source of these data is patent US20130030012A1, “COMPOUNDS” (Glaxo Group Limited, priority 2011, published 2013).

Experiment [1] addresses T1, Lp-PLA2 in human plasma (Homo sapiens, UniProt Q13093).
T1 construct: from tissue; host or cells: pooled human plasma
T1 sequence (Q13093 22-441): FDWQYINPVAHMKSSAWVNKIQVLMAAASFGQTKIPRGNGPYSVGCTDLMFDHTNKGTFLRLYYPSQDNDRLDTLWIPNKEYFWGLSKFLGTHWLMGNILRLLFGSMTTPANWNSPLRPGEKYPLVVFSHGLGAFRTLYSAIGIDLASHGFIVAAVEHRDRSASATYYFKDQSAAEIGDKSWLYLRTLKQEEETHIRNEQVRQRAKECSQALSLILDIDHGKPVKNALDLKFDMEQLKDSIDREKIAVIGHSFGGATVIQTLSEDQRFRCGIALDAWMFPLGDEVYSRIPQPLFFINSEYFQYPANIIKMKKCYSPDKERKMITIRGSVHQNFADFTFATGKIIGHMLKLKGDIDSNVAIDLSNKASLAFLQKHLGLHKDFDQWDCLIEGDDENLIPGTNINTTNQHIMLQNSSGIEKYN
Briefly: Lp-PLA2 human plasma assay (Thio-PAF assay). The conditions noted are these: pooled human plasma; read-out: pIC50 values in the thio-PAF assay (converted). The class given is biochemical. The gist of the method: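 Pooled human plasma preincubated 30 min with compounds, then given substrate mix of 2.5 mM 2-thio-PAF, […] and 3.2 mM NEM (concentrations in substrate solution) in pH 7.4 HEPES/NaCl/CHAPS buffer. Quenched with TFA after 2 min; CPM-thiol fluorescence read at ex 380/em 485 to give pIC50.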

Experiment [2] deals with T2, recombinant human Lp-PLA2 (Homo sapiens, UniProt Q13093).
T2 sequence (Q13093 22-441): T1 sequence (Q13093 22-441)
The experiment in a line: Recombinant human Lp-PLA2 assay (rhLp-PLA2, PED6 assay). It is filed as biochemical. The conditions noted are these: upper limit for pIC50 in this assay is 9.3. The method in brief: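 Enzyme at 4 nM (or 110 pM) in 50 mM HEPES pH 7.4, 150 mM NaCl, 1 mM CHAPS, preincubated with compound 30 min. PED6 substrate ([…] 5 μM, as printed) then added and reaction run 20 min at room temperature, protected from light. Fluorescence read at ex 480/em 540; pIC50 from curve fitting.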

Setting [3] is: read-out: pIC50 values in the PED6 assay (converted).

Like-named read-outs stand apart in the source and are kept apart here. Where only a bound is given, the exact number is not on record here.

Regarding `O=c1nc(OCc2cc(F)c(Oc3ccc(F)c(C(F)(F)F)c3)c(F)c2)cc2n1CCCN2` [Example 93, 8-((3,5-difluoro-4-(4-fluoro-3-(trifluoromethyl)phenoxy)benzyl)oxy)-3,4-dihydro-1H-pyrimido[1,6-a]pyrimidin-6(2H)-one], the IC50 in experiment [1] is no more than 100 nM; in experiment [2] (Table 1, read-out: rhLp-PLA2 (PED6 assay) (pIC50) (converted)), no more than 0.501 nM; in experiment [2] (setting [3]), no more than 1 nM.
For `N#Cc1cc(COc2cc3n(c(=O)n2)CCCN3)ccc1Oc1ccc(F)c(F)c1` [Example 94, 2-(3,4-difluorophenoxy)-5-(((6-oxo-2,3,4,6-tetrahydro-1H-pyrimido[1,6-a]pyrimidin-8-yl)oxy)methyl)benzonitrile], the IC50 in experiment [1] is no more than 100 nM; in experiment [2] (setting [3]) it was no more than 1 nM.
For `CN1CCCn2c1cc(OCc1ccc(Oc3ccc(Cl)nc3)c(F)c1)nc2=O` [Example 95, 8-((4-((6-chloropyridin-3-yl)oxy)-3-fluorobenzyl)oxy)-1-methyl-3,4-dihydro-1H-pyrimido[1,6-a]pyrimidin-6(2H)-one] the same measures were no more than 100 nM and no more than 1 nM.
In the case of `CN1CCCn2c1cc(OCc1ccc(Oc3ccc(Cl)c(F)c3)c(C#N)c1)nc2=O` [Example 96, 2-(4-chloro-3-fluorophenoxy)-5-(((1-methyl-6-oxo-2,3,4,6-tetrahydro-1H-pyrimido[1,6-a]pyrimidin-8-yl)oxy)methyl)benzonitrile], the IC50 in experiment [1] was no more than 100 nM; in experiment [2] (setting [3]), no more than 1 nM.
For `O=c1nc(OCc2ccc(Oc3ccc(Cl)c(C(F)(F)F)c3)c(F)c2)cc2n1CCCN2` [Example 97, 8-((4-(4-chloro-3-(trifluoromethyl)phenoxy)-3-fluorobenzyl)oxy)-3,4-dihydro-1H-pyrimido[1,6-a]pyrimidin-6(2H)-one] the same measures were no more than 100 nM and no more than 1 nM.
For `CN1CCCn2c1cc(OCc1ccc(Oc3cc(F)cc(C#N)c3)c(F)c1)nc2=O` [Example 98, 3-fluoro-5-(2-fluoro-4-(((1-methyl-6-oxo-2,3,4,6-tetrahydro-1H-pyrimido[1,6-a]pyrimidin-8-yl)oxy)methyl)phenoxy)benzonitrile] the same measures were no more than 100 nM and no more than 1 nM.
For `O=c1nc(OCc2ccc(F)c(F)c2)cc2n1CCCN2` [Example 99, 8-((3,4-difluorobenzyl)oxy)-3,4-dihydro-1H-pyrimido[1,6-a]pyrimidin-6(2H)-one] the same measures were no more than 100 nM and no more than 10 nM.
In the case of `O=c1nc(OCc2ccc(Oc3ccc(F)c(C(F)(F)F)c3)cc2)cc2n1CCCN2` [Example 100, 8-((4-(4-fluoro-3-(trifluoromethyl)phenoxy)benzyl)oxy)-3,4-dihydro-1H-pyrimido[1,6-a]pyrimidin-6(2H)-one], the IC50 was no more than 100 nM in experiment [1] and no more than 1 nM in experiment [2] (setting [3]).
For `O=c1nc(OCc2ccc(Oc3cccc(C(F)(F)F)c3)c(F)c2)cc2n1CCCN2` [Example 101, 8-((3-fluoro-4-(3-(trifluoromethyl)phenoxy)benzyl)oxy)-3,4-dihydro-1H-pyrimido[1,6-a]pyrimidin-6(2H)-one] the same measures were no more than 100 nM and no more than 1 nM.
For `CN1CCCn2c1cc(OCCc1ccc(Oc3ccc(Cl)c(F)c3)c(F)c1)nc2=O` [Example 102, 8-(4-(4-chloro-3-fluorophenoxy)-3-fluorophenethoxy)-1-methyl-3,4-dihydro-1H-pyrimido[1,6-a]pyrimidin-6(2H)-one] the same measures were no more than 1000 nM and no more than 1 nM.
`CN1CCCn2c1cc(OCCc1ccc(Oc3ccc(Cl)c(F)c3)cc1)nc2=O` [Example 103, 8-(4-(4-chloro-3-fluorophenoxy)phenethoxy)-1-methyl-3,4-dihydro-1H-pyrimido[1,6-a]pyrimidin-6(2H)-one]: the values for the IC50 in experiment [1] and in experiment [2] (setting [3]) were no more than 1000 nM and no more than 10 nM, respectively.
For `N#Cc1ccc(Oc2ccc(COc3cc4n(c(=O)n3)CCCN4)cc2C#N)cc1F` [Example 104, 4-(2-cyano-4-(((6-oxo-2,3,4,6-tetrahydro-1H-pyrimido[1,6-a]pyrimidin-8-yl)oxy)methyl)phenoxy)-2-fluorobenzonitrile] the same measures were no more than 100 nM and no more than 1 nM.
